Reference: article PMC9896003, “Discovery of a novel, liver-targeted thyroid hormone receptor-β agonist, CS271011, in the treatment of lipid metabolism disorders” (Frontiers in Endocrinology, 2023)
Where two headings read alike, the source gives them in different places.

Assays:
[1] = Serum pharmacokinetic study, single oral gavage; assay type: in vivo, C57BL/6J mice; details: for AUC(0-inf) / AUC(0-t) / Cmax / Tmax / half-life / MRT last: male, mouse, serum, po, orally once, normal C57BL/6J mice; for MRT last: read-out: MRT(0-t)
Description: Then, each group was subdivided into three groups for blood extraction: Group 1, sample collection after 0.5 hours and 2 hours of treatment (n=3); Group 2, sample collection after 1 hour and 4 hours of treatment (n=3); and Group 3, sample collection after 8 hours and 24 hours of treatment (n=3). Approximately 100 μl of blood was collected from the orbit and centrifuged (3500 g, 15 min, 4°C) to extract serum and placed on ice (0°C), and 20 μl of serum was added to 200 μl of extractant (containing 200 ng/ml methanol), which was assessed by liquid chromatography-tandem mass spectrometry (LC−MS/MS) procedures. […]

[2] = Tissue distribution study (heart, liver, kidney, blood) by LC-MS/MS; assay type: in vivo, C57BL/6J mice; details: for Concentration, Blood / Concentration, Heart / Kp at 24 h: 24h; for Concentration, Blood / Concentration, Heart: mean; for Kp at 2 h / Kp at 4 h / Kp at 24 h: C57BL/6J, mouse
Description: To detect the tissue distribution of drugs, the heart, liver, and kidney of mice in Group 1, Group 2, and Group 3 were collected at 2 hours, 4 hours, and 24 hours, respectively. Then, 1 ml of 1X PBS was added for tissue homogenization. 50 μl tissue homogenate was added to 500 μl of extractant (containing 200 ng/ml methanol). The protein of tissue samples was precipitated by vortex oscillation for 5 min and centrifuged at 13,000 rpm for 10 min, and 150 μL of supernatant was collected and determined by LC−MS/MS procedures.

[3] = DIO mouse study: body weight, food intake, liver and heart weight; assay type: in vivo; details: DIO mice
Description: (§1) All animal experiments were performed at Chipscreen Biosciences (Shenzhen, China) according to the National Research Council’s Guide for the Care and Use of Laboratory Animals and the Regulations of Experimental Animal Administration issued by the State Committee of Science and Technology of China and approved by Shenzhen Peking University - The Hong Kong University of Science and Technology Medical Center’s Ethics Committee for the Welfare of Laboratory Animals (approval no. 2022-988). Forty C57BL/6J mice (4-5 weeks, male) were received and raised under a standard 12-hour light/dark cycle (lights off at 7:00 pm). Thirty-five mice were fed a fat-rich diet (SYSE Bio-tech, D12492i; 60% of kcal from fat; Changzhou, China), and the other five mice were fed a control diet (Guangdong Medical Laboratory Animal Center, Foshan, China) ad libitum for 12 weeks. […] The mice from Group 2 to Group 5 were fed a high-fat diet. […] Body weight and food intake were measured once daily during treatment. All mice were sacrificed after treatment, and blood, hearts, and livers were collected for further validation.

DIO mice [4] = assay: DIO mouse study: serum biochemical indices; assay type: in vivo
Description: as §1
Blood samples were collected from the orbit and placed for 30 min at room temperature and then centrifuged (3500 g, 15 min, 4°C), and the serum was collected for TG, TC, AST, and ALT tests. For the liver TG and TC tests, the right lobe of the liver was collected and weighed accurately, and then isopropanol and absolute ethanol were added at a ratio of 1:9 (weight/volume) for tissue homogenization on ice. Next, the liver sample was centrifuged (10,000 g and 2500 g, 10 min, at 4°C for liver TG and TC extraction, respectively), and the supernatant was collected for liver TG and TC assays. Tests for TC, ALT and AST were performed following the manufacturer’s instructions.

DIO mice [5] = assay: DIO mouse study: liver TG and TC; assay type: in vivo, C57BL/6J mice; details: 3 mg/kg, 10 weeks
Description: as §1
Blood samples were collected from the orbit and placed for 30 min at room temperature and then centrifuged (3500 g, 15 min, 4°C), and the serum was collected for TG, TC, AST, and ALT tests. […]

DIO mice [6] = assay: DIO mouse study: liver histology (H&E, Oil Red O, NAFLD activity score); assay type: in vivo, C57BL/6J mice; details: 3 mg/kg, 10 weeks
Description: All animal experiments were performed at Chipscreen Biosciences (Shenzhen, China) according to the National Research Council’s Guide for the Care and Use of Laboratory Animals and the Regulations of Experimental Animal Administration issued by the State Committee of Science and Technology of China and approved by Shenzhen Peking University - The Hong Kong University of Science and Technology Medical Center’s Ethics Committee for the Welfare of Laboratory Animals (approval no. 2022-988). Forty C57BL/6J mice (4-5 weeks, male) were received and raised under a standard 12-hour light/dark cycle (lights off at 7:00 pm). Thirty-five mice were fed a fat-rich diet (SYSE Bio-tech, D12492i; 60% of kcal from fat; Changzhou, China), and the other five mice were fed a control diet (Guangdong Medical Laboratory Animal Center, Foshan, China) ad libitum for 12 weeks. […] The mice from Group 2 to Group 5 were fed a high-fat diet. Treatments started on the thirteenth week and lasted 10 weeks, in which Groups 1 and 2 received solvent (0.2% CMC-Na), and the other groups were administered corresponding compounds orally once daily (the volume of solvent was 5 ml/kg). Body weight and food intake were measured once daily during treatment. All mice were sacrificed after treatment, and blood, hearts, and livers were collected for further validation.
After the animals were sacrificed, the left hepatic lobe was collected (approximately 100–200 mg) and fixed in 4% paraformaldehyde overnight. The liver tissue was sectioned at a thickness of 5 μm after being paraffin-embedded. Liver sections were stained with haematoxylin and eosin (H&E), and the NAFLD activity scores were determined based on the steatosis, lobular inflammation, and hepatocyte ballooning degeneration in accordance with the standard proposed by Kleiner ([17]).
To analyse the content of lipids in the liver, Oil Red O (ORO) staining of isobutyl alcohol-frozen liver sections was conducted by Wuhan Servicebio Technology Co., Ltd. (Wuhan, China). Each positive region of ORO staining was quantified for each sample using Imangepro plus 6.0 software ([…]).

DIO mice [7] = assay: RT-PCR of hepatic genes, DIO mice; assay type: in vivo, C57BL/6J mice
Description: The total RNA of fresh liver tissue was extracted using TRIzol reagent (Invitrogen, Carlsbad, CA, USA), and RNA quality was measured using a Nanodrop2000 by calculating the 260/280 ratio. Based on the manufacturer’s instructions, we reverse-transcribed 5 μg of isolated RNA with a Transcriptor First Strand cDNA Synthesis Kit (Roche Diagnostics, Mannheim, Germany). Real-time PCR (RT−PCR) was conducted to measure the relative expression of genes by using SYBR Green Master (ROX) dye (Roche Diagnostics, Mannheim, Germany) and the ABI Prism 7000 Sequence Detection System (Applied Biosystems, Foster City, CA, USA). Changes in target mRNA were standardized to β-actin mRNA levels for each sample in triplicate. The 2-^△△Ct method was used to determine the relative mRNA expression levels.

DIO mice [8] = assay: RT-PCR of myocardial energy metabolism gene mGPDH, DIO mice; assay type: in vivo, C57BL/6J mice
HMC = assay: Cell viability in kidney cell line HMC; assay type: cell-based
NRK49F = assay: Cell viability in kidney cell line NRK49F; assay type: cell-based
[9] = heart/blood, 10 mg/kg oral, read-out: Ratio (tissue/blood), Heart
[10] = kidney/blood, 10 mg/kg oral, read-out: Ratio (tissue/blood), Kidney
[11] = liver/blood, 10 mg/kg oral, read-out: Ratio (tissue/blood), Liver
[12] = male, heart / blood, 3 mg/kg oral, read-out: Ratio (tissue/blood), Heart
[13] = male, kidney / blood, 3 mg/kg oral, read-out: Ratio (tissue/blood), Kidney
[14] = male, liver / blood, 3 mg/kg oral, read-out: Ratio (tissue/blood), Liver
[15] = 10 weeks oral once daily, CS271011 1 and 3 mg/kg, MGL-3196 3 mg/kg
[16] = 10 weeks of treatment, CS271011 1 and 3 mg/kg, MGL-3196 3 mg/kg

## CC(C)c1cc(Oc2c(Cl)cc(-n3nc(C#N)c(=O)[nH]c3=O)cc2Cl)n[nH]c1=O [MGL-3196, 2-[3,5-dichloro-4-(5-isopropyl-6-oxo-1,6-dihydropyridazin-3-yloxy)phenyl]-3,5-dio xo-2,3,4,5-tetrahydro[1,2,4]triazine-6-carbonitrile]
[1]; 3 mg/kg and 10 mg/kg oral
  bioavailability in vivo, comparison at the same dosage: higher bioavailability in vivo than CS271011
[1]; 3mg/kg
  AUC(0-inf): 9470 ng·h/mL
  AUC(0-t): 9330 ng·h/mL
  Cmax: 1140 ng/mL
  Tmax: 2 h
  half-life: 3.8 h
  MRT last: 6.3 h
[1]; 10mg/kg
  AUC(0-inf): 35800 ng·h/mL
  AUC(0-t): 35600 ng·h/mL
  Cmax: 4870 ng/mL
  Tmax: 2 h
  half-life: 3 h
  MRT last: 5.8 h
[2]; 3 mg/kg and 10 mg/kg oral, especially 2 and 4 hours after administration
  tissue distribution (liver targeting): liver-targeted
[2]; 3 mg/kg oral
  Concentration, Blood: 25.40 ng/g
  Concentration, Heart: 78.08 ng/g
[2]; 10 mg/kg oral
  Concentration, Blood: 42.40 ng/g
  Concentration, Heart: 147.91 ng/g
[2]; [9]
  Kp at 2 h: 0.113
  Kp at 4 h: 0.112
  Kp at 24 h: 3.49
[2]; [10]
  Kp at 2 h: 0.572
  Kp at 4 h: 0.607
  Kp at 24 h: 0.734
[2]; [11]
  Kp at 2 h: 4.59
  Kp at 4 h: 4.63
  Kp at 24 h: 4.8
[2]; [12]
  Kp at 2 h: 0.213
  Kp at 4 h: 0.146
  Kp at 24 h: 3.07
[2]; [13]
  Kp at 2 h: 0.64
  Kp at 4 h: 0.617
  Kp at 24 h: 1.25
[2]; [14]
  Kp at 2 h: 6.59
  Kp at 4 h: 6.17
  Kp at 24 h: 3.17
[3]; 10-week drug intervention
  liver weight and LW/BW: dramatically reduced
[3]; [15]
  body weight: dramatic reduction in body weight
  food intake: neither CS271011 nor MGL-3196 impeded food intake
DIO mice [4]; 3 mg/kg, 10 weeks, mean ± SD (DIO control 1.25±0.38)
  Serum TG: 0.59 ± 0.11 mmol/L
DIO mice [4]; 3 mg/kg, 10 weeks, mean ± SD (DIO control 7.79±1.67)
  Serum TC: 3.46 ± 1.61 mmol/L
DIO mice [4]; 10 weeks of treatment
  serum ALT and AST levels: no influence
DIO mice [4]; [16]
  serum TC vs. DIO control: significant reduction
  serum TG vs. DIO control: significant reduction
DIO mice [5]
  hepatic TC concentration: markedly reduced
  hepatic TG concentration: markedly reduced
DIO mice [6]
  NAS score: equivalent efficacy
  ORO staining area: decreased
  hepatic ballooning: mitigated hepatic ballooning with a considerable effect
  steatosis score: decreased
DIO mice [7]
  hepatic expression of Abcc3: negatively regulated
  hepatic expression of Csad, Slc25a30 and Tff3 (downregulated in DIO mice): rescued
  hepatic expression of Cyp4a10: obviously downregulated
  hepatic expression of Cyp39a1: upregulated
  hepatic expression of Hsd17b6: diminished
  hepatic expression of LDLR, Cyp7a1, Cyp17a1, Srebp2 and Sqle: positively regulated
  hepatic expression of Srebf1: strongly downregulated
DIO mice [8]
  mGPDH expression in the hearts of DIO mice: barely affects
HMC
  cell viability: no effect on cell viability
NRK49F
  cell viability: no effect on cell viability
